We go through two compounds from BindingDB's records for doi:10.1021/acs.jmedchem.1c01118 (Glaxosmithkline, 2021).

The assay is described as follows: Binding affinity to human 6His-thr cIAP1 BIR3 (253 to 363) domain expressed in Escherichia coli measured after 105 mins in dark by time-resolved fluorescence laser-equipped multimode plate reader.

By IC50 is commonly meant the concentration needed to halve the response being measured. A higher IC50 goes with lower potency. For `CN[C@@H](C)C(=O)N[C@H](C(=O)N1CCC[C@H]1c1nc(C(=O)c2ccc(F)cc2)cs1)C1CCN(C(=O)c2cnc(N3CCN(CCCOc4cc5ncnc(Nc6n[nH]c(C)c6C)c5cc4S(=O)(=O)C(C)(C)C)CC3)cn2)CC1`, the IC50 is 7.9 nM. Compound `Cc1[nH]nc(Nc2ncnc3cc(OCCCN4CCN(C(=O)c5cnc(N6CCN(C[C@H]7CN[C@H](C)CN7CC(=O)N7CC(C)(C)c8c7cc(Cc7ccc(F)cc7)c(=O)n8C)[C@H](C)C6)nc5)CC4)c(S(=O)(=O)C(C)(C)C)cc23)c1C` displayed an IC50 of 5 nM.
